# Reference: patent US8080377B2, “Method for confirming the exposure on chrysene” (Korea Institute of Science and Technology, priority 2008, dated 2011)
# Tested on: HepG2 cells
# Experiment: 44 k whole human genome oligo microarray gene expression, cells treated with chrysene at IC20 for 48 hours (Cy5) vs untreated control (Cy3)
# Assay type: cell-based
# Experimental: HepG2 cells were distributed on a 100 mm dish at the concentration of 6×10^6 cell/ml, to which chrysene was treated for 48 hours at the concentration that was determined in Example <1-2>. Total RNA was extracted from the cells using trizol reagent (Invitrogen life technologies, USA) according to the manufacturer's instruction and the extracted RNA was purified by using RNeasy mini kit (Qiagen, USA). The genomic DNA was eliminated during the purification of RNA using RNase-free DNase set (Qiagen, USA). The total RNA was quantified by spectrophotometer and purity was measured by Agilent 2100 Bioanalyzer (Agilent Technologies, USA) and agarose gel-electrophoration.
# For oligo-microarray analysis, cDNA was synthesized using the total RNA extracted from the experimental group treated with chrysene obtained in Example <2-1>. 30 μg of the total RNA and 2 μg (1 μg/μl) of oligo (dT) primer were mixed, followed by reaction for 10 minutes at 65° C. Then, the reaction mixture was put in ice, followed by annealing. Reagents were mixed as shown in Table 1 for reverse transcription of the RNA.
# The total RNA extracted from the control HepG2 cell line was labeled with Cy3-dUTP (green), while the RNA extracted from the experimental HepG2 cell line treated with chrysene was labeled with Cy5-dUTP (red). At this time, the two samples were mixed and purified by Microcon YM-30 column (Millipore, USA).
# Hybridization and washing were performed according to the instruction of GeneoCheck Co., Ltd. Hybridization was performed in a 62° C. oven for 12 hours. At this time, 44 k whole human genome oligo microarray (Agilent, USA) was used as a DNA microarray chip. After washing (with 2×SSC/0.1% SDS for 2 minutes, with 1×SSC for 3 minutes, with 0.2×SSC for 2 minutes), the slide was centrifuged at 800 rpm for 3 minutes and dried.
# Scanning of the hybridized images on the slide was performed by using Genepix 4000B (Axon Instruments, USA). Fluorescence images of the chip washed to eliminate non-binding genes were obtained by laser fluorescence scanner. At this time, green fluorescent images indicated the activity of the gene expressed in the control, whereas red fluorescent images indicated the activity of the gene expressed specifically in the experimental group. […] The scanned images were analyzed by GenePix 4.1 software (Axon Instruments, USA) to calculate the gene expression rate. Based on the obtained data, marker genes for chrysene were selected (see FIG. 2).
smiles,measurement,setting,value
c1ccc2c(c1)ccc1c3ccccc3ccc21 [chrysene],Ratio of intermediate value,ACHE (NM_015831),6.223
same,Ratio of intermediate value,ADA (NM_000022),5.213
same,Ratio of intermediate value,ADM (NM_001124),2.186
same,Ratio of intermediate value,ADORA2B (AK172851),2.249
same,Ratio of intermediate value,APOL2 (AF324224),2.105
same,Ratio of intermediate value,APOL3 (NM_145641),3.196
same,Ratio of intermediate value,AXL (NM_021913),3.268
same,Ratio of intermediate value,B2M (NM_004048),2.006
same,Ratio of intermediate value,BATF (BQ053419),2.221
same,Ratio of intermediate value,BTG3 (BC011957),2.74
same,Ratio of intermediate value,C1R (NM_001733),2.893
same,Ratio of intermediate value,C1S (NM_001734),3.018
same,Ratio of intermediate value,C4A (NM_001002029),2.002
same,Ratio of intermediate value,C20orf139 (H18681),4.383
same,Ratio of intermediate value,CCL3 (CR591007),3.347
same,Ratio of intermediate value,CCL3L1 (BF662985),2.839
same,Ratio of intermediate value,CCL14 (NM_004167),5.103
same,Ratio of intermediate value,CCL20 (BC020698),2.199
same,Ratio of intermediate value,CCL23 (NM_005064),2.761
same,Ratio of intermediate value,CCND3 (AK096276),2.292
same,Ratio of intermediate value,CD3D (NM_000732),54.94
same,Ratio of intermediate value,CD9 (NM_001769),4.153
same,Ratio of intermediate value,CD58 (NM_001779),2.794
same,Ratio of intermediate value,CD79B (AK223210),15.33
same,Ratio of intermediate value,CDKN2B (NM_078487),2.559
same,Ratio of intermediate value,CSF1 (BC021117),4.788
same,Ratio of intermediate value,CXCL12 (AK090482),2.842
same,Ratio of intermediate value,DDX58 (NM_014314),2.333
same,Ratio of intermediate value,DKFZp451C2311 (AL832451),2.639
same,Ratio of intermediate value,DNAJA2 (AF116720),10.94
same,Ratio of intermediate value,DNAJB2 (BC040494),2.053
same,Ratio of intermediate value,DNAJB4 (AB209922),2.872
same,Ratio of intermediate value,DUSP1 (AK127679),2.383
same,Ratio of intermediate value,DUSP13 (NM_001007271),7.031
same,Ratio of intermediate value,E2F7 (NM_203394),3.647
same,Ratio of intermediate value,EBI3 (NM_005755),5.607
same,Ratio of intermediate value,ELF4 (NM_001421),4.316
same,Ratio of intermediate value,F2RL1 (NM_005242),2.258
same,Ratio of intermediate value,F8 (NM_000132),2.415
same,Ratio of intermediate value,FAM14A (NM_032036),2.706
same,Ratio of intermediate value,FOS (BX647104),2.287
same,Ratio of intermediate value,FOSL1 (NM_005438),5.643
same,Ratio of intermediate value,GPX1 (NM_201397),2.85
same,Ratio of intermediate value,GPX2 (BE512691),2.014
same,Ratio of intermediate value,HLA-DOA (NM_002119),4.209
same,Ratio of intermediate value,HRAS (NM_005343),2.3
same,Ratio of intermediate value,HSPA4L (NM_014278),4.71
same,Ratio of intermediate value,HSPA8 (NM_006597),2.313
same,Ratio of intermediate value,HSPCA (AJ890082),2.544
same,Ratio of intermediate value,ICOSLG (CB055213),3.644
same,Ratio of intermediate value,IL4R (NM_000418),2.254
same,Ratio of intermediate value,IL11 (NM_000641),4.521
same,Ratio of intermediate value,ITCH (NM_031483),2.301
same,Ratio of intermediate value,KLF6 (NM_001008490),2.3
same,Ratio of intermediate value,KLRC3 (NM_002260),2.942
same,Ratio of intermediate value,LIF (NM_002309),8.088
same,Ratio of intermediate value,LY96 (BM918324),5.439
same,Ratio of intermediate value,MAPK11 (BC027933),2.256
same,Ratio of intermediate value,MAPK13 (AB209586),2.326
same,Ratio of intermediate value,MBL2 (NM_000242),2.755
same,Ratio of intermediate value,MGC3207 (AL834276),2.364
same,Ratio of intermediate value,MR1 (AF031469),7.059
same,Ratio of intermediate value,NALP6 (AY154461),2.392
same,Ratio of intermediate value,NFKBIA (NM_020529),2.242
same,Ratio of intermediate value,NINJ1 (NM_004148),2.107
same,Ratio of intermediate value,NK4 (BF569086),3.138
same,Ratio of intermediate value,NR3C1 (U25029),2.274
same,Ratio of intermediate value,OAS1 (NM_016816),3.711
same,Ratio of intermediate value,"PAI, PAI1, PAI-1, PLANH1 (BX649164)",29.05
same,Ratio of intermediate value,PARD6B (BC060847),2.507
same,Ratio of intermediate value,PARD6G (BC060797),3.502
same,Ratio of intermediate value,PGF (NM_002632),2.436
same,Ratio of intermediate value,PPM1D (NM_003620),3.647
same,Ratio of intermediate value,PPP1R9B (BC008564),3.169
same,Ratio of intermediate value,PRNP (NM_000311),2.313
same,Ratio of intermediate value,PROCR (NM_006404),24.53
same,Ratio of intermediate value,PTGES (AK127663),3.184
same,Ratio of intermediate value,PTP4A1 (BC040303),3.183
same,Ratio of intermediate value,RAE1 (AK097024),2.921
same,Ratio of intermediate value,RPS6KA1 (BC014966),2.11
same,Ratio of intermediate value,S100A6 (BM904612),5.938
same,Ratio of intermediate value,SAA4 (BG564326),4.076
same,Ratio of intermediate value,SASH1 (NM_015278),2.368
same,Ratio of intermediate value,SEMA7A (AF069493),2.531
same,Ratio of intermediate value,SERTAD1 (AK074652),4.835
same,Ratio of intermediate value,SFN (BC023552),2.525
same,Ratio of intermediate value,SGK2 (BC006523),4.65
same,Ratio of intermediate value,STAT1 (NM_007315),2.268
same,Ratio of intermediate value,TAP1 (BX648013),4.08
same,Ratio of intermediate value,TAPBP (NM_172208),7.02
same,Ratio of intermediate value,TGFA (NM_003236),2.487
same,Ratio of intermediate value,TLR3 (BC068487),2.541
same,Ratio of intermediate value,TMPRSS6 (NM_153609),2.118
same,Ratio of intermediate value,TP53I11 (BC045666),6.008
same,Ratio of intermediate value,TREM2 (NM_018965),43.67
same,Ratio of intermediate value,TRIM22 (BC035582),13.79
same,Ratio of intermediate value,VWF (NM_000552),2.476
same,Ratio of intermediate value,XLKD1 (NM_006691),10.06
same,Ratio of intermediate value,ZAP70 (AL832287),3.83
same,Ratio of intermediate value,ZCSL2 (AK092040),2.303
same,genes identified to be down-regulated (2.0 fold less),"out of 44,000 genes",0.82%
same,genes identified to be up-regulated (2.0 fold higher),"out of 44,000 genes",0.73%
same,number of genes identified to be down-regulated,"out of 44,000 genes",361 genes
same,number of genes identified to be up-regulated,"out of 44,000 genes",323 genes
